Results taken from the NIST ThermoML archive (doi:10.1021/acs.jced.5b00724).
Values joined by “and” are separate entries in the source; they are usually repeats but may differ in a detail not shown here. Equal values may be shown once.

What was measured:
[1] = wn = mass fraction of the nth substance listed; settings: 298.1 K, Liquid, Vibrating tube method
[2] = excess molar enthalpy (molar enthalpy of mixing); xn = mol fraction of the nth substance listed; settings: 130 kPa, Liquid, Calvet calorimetry
[3] = 350.12 K; Liquid; Closed cell (Static) method
[4] = refractive index (Na D-line) (dimensionless); settings: 298.15 K; 101.33 kPa; Liquid; Standard Abbe refractometry

CC1CCC(=O)O1 (stereo not drawn) [γ-valerolactone] + O
Settings	excess molar enthalpy	mass density [kg/m3]
[1], 107 kPa, w2 = 0	–	1048.8
[1], 107 kPa, w2 = 0.1004	–	1047
[1], 107 kPa, w2 = 0.2005	–	1044.9
[1], 107 kPa, w2 = 0.3025	–	1041.7
[1], 107 kPa, w2 = 0.4	–	1037.6
[1], 107 kPa, w2 = 0.5	–	1032.9
[1], 107 kPa, w2 = 0.6	–	1027.1
[1], 108 kPa, w2 = 0.6999	–	1021.1
[1], 109 kPa, w2 = 0.7999	–	1013.8
[1], 109 kPa, w2 = 0.8997	–	1005.5
[2], 303.2 K, x2 = 0.097	0.124 kcal/mol	–
[2], 303.2 K, x2 = 0.203	0.197 kcal/mol	–
[2], 303.2 K, x2 = 0.303	0.222 kcal/mol	–
[2], 303.2 K, x2 = 0.4	0.217 kcal/mol	–
[2], 303.2 K, x2 = 0.514	0.194 kcal/mol	–
[2], 303.2 K, x2 = 0.601	0.15 kcal/mol	–
[2], 303.2 K, x2 = 0.7	0.107 kcal/mol	–
[2], 303.2 K, x2 = 0.801	0.0581 kcal/mol	–
[2], 303.2 K, x2 = 0.841	0.0387 kcal/mol	–
[2], 303.2 K, x2 = 0.894	0.0127 kcal/mol	–
[2], 303.2 K, x2 = 0.9	0.0103 kcal/mol	–
[2], 303.2 K, x2 = 0.914	0.00308 kcal/mol and 0.00239 kcal/mol	–
[2], 303.2 K, x2 = 0.93	-0.00437 kcal/mol	–
[2], 303.2 K, x2 = 0.946	-0.0098 kcal/mol	–
[2], 303.2 K, x2 = 0.9815	-0.0182 kcal/mol	–
[2], 303.2 K, x2 = 0.9906	-0.0103 kcal/mol	–
[2], 303.2 K, x2 = 0.9962	-0.00416 kcal/mol	–
[2], 303.2 K, x2 = 0.9981	-0.0021 kcal/mol	–
[2], 322.6 K, x2 = 0.204	0.207 kcal/mol	–
[2], 322.6 K, x2 = 0.401	0.249 kcal/mol	–
[2], 322.6 K, x2 = 0.503	0.232 kcal/mol	–
[2], 322.6 K, x2 = 0.602	0.197 kcal/mol	–
[2], 322.6 K, x2 = 0.7	0.152 kcal/mol	–
[2], 322.6 K, x2 = 0.801	0.097 kcal/mol	–
[2], 322.6 K, x2 = 0.9	0.0402 kcal/mol	–
[2], 322.6 K, x2 = 0.95	0.0116 kcal/mol	–

O [water]
Settings	refractive index	vapor or sublimation pressure [kPa]
[3]	–	41.9
[4]	1.3325	–
